Reference: patent publication US7732444B2, “2-(amino-substituted)-4-aryl pyrimidines and related compounds useful for treating inflammatory diseases” (Millennium Pharmaceuticals, Inc., priority 2004, dated 2010)

Biological target: T1, full length PKC θ (Homo sapiens, UniProt Q04759)
T1 construct: 15 μL of full length PKC θ (Panvera Corporation); purchased Panvera Corporation
Test: PKC-theta isoform inhibition assay (HTRF, 384 well plate)
Assay type: biochemical
Conditions: full length PKC θ at 27 pM, peptide substrate 300 nM + 3 μM ATP, HTRF readout
Procedure: An in vitro assay for detecting and measuring inhibition activity against PKC-theta isoform by candidate pharmacological agents is useful for evaluating and selecting a compound that modulates PKC-theta isoform. An IC50 value can be calculated after running the assay. Following is an assay protocol for measuring PKC-theta isoform.
Per well of a 384 well plate, compounds at various concentrations in 5 μL of 20% DMSO were pre-incubated for about 30 minutes at about 25° C. with 15 μL of full length PKC θ (Panvera Corporation) at 27 pM in an assay buffer (25 mM Hepes, pH 7.5, 5 mM DTT, 10 mM MgCl2, 10 mM 2-glycerophosphate, 12.5 μg/mL 1,2-dioleoyl-rac-glycerol, 10 μg/mL L-α-phosphatidyl-L-serine, 0.1% Bovine Serum Albumin). 10 μL of peptide substrate (biotin-(CH2)6— RFARKGSLRQKNV —CONH2) at 300 nM+3 μM ATP were added to each well and incubated for about 1 hour before quenching with 10 μL of 250 mM EDTA. 40 μL of detection buffer (25 mM Hepes, pH 7.5, 100 mM KF, 0.1% Bovine Serum Albumin, 0.01% Tween20) containing 2 nM anti-phospho antibody 2B9 (MBL International) labeled with europium cryptate (Cis-Bio International) and 0.0064 μg/mL streptavidin-allophycocyanin (Prozyme) was added to each well and incubated for two hours. Signal was then read on a Discovery HTRF (Packard).

T1 sequence (Q04759 whole entry): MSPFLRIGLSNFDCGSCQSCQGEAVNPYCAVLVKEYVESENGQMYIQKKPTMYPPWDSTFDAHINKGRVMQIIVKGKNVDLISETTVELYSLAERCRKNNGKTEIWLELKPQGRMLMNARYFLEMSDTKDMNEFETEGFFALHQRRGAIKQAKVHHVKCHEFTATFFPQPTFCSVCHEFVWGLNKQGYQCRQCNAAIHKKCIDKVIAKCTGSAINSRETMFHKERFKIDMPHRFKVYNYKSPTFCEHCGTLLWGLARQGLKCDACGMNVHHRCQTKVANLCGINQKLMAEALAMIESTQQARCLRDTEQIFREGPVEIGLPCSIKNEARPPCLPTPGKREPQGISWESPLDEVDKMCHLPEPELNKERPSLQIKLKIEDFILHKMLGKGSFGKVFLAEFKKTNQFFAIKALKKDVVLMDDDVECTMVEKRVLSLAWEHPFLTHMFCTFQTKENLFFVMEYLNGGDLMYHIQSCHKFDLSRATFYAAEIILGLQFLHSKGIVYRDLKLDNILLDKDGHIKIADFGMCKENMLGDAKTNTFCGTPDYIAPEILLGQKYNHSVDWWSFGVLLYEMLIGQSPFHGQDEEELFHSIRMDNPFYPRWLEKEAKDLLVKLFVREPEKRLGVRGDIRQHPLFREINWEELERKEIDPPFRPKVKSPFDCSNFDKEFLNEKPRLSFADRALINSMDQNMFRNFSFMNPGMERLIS

| IC50 [nM] | Compound |
| --- | --- |
| < 100 | COc1cc(CCNc2nccc(-c3cccc(OC(C)C)c3)n2)ccc1O [Compound 107, 4-{2-[4-(3-Isopropoxy-phenyl)-pyrimidin-2-ylamino]-ethyl}-2-methoxy-phenol] |
| < 100 | CS(=O)(=O)N(Cc1cccc(-c2nc(NCCc3ccc(O)cc3)ncc2F)c1)C1CCNCC1 [Compound 134, N-(3-{5-Fluoro-2-[2-(4-hydroxy-phenyl)-ethylamino]-pyrimidin-4-yl}-benzyl)-N-piperidin-4-yl-methanesulfonamide] |
| < 100 | Oc1ccc(CCNc2nccc(-c3cccc(NC4CCNC4)c3)n2)cc1 (stereo not drawn) [Compound 55, 4-(2-{4-[3-(Pyrrolidin-3-ylamino)-phenyl]-pyrimidin-2-ylamino}-ethyl)-phenol] |
| < 100 | COc1cc(CCNc2nccc(-c3cccc(NC4CCNCC4)c3)n2)ccc1O [Compound 40, 2-Methoxy-4-(2-{4-[3-(piperidin-4-ylamino)-phenyl]-pyrimidin-2-ylamino}-ethyl)-phenol] |
| < 100 | [2H]C([2H])(CNc1nccc(-c2cccc(CN3CCNC[C@@H]3C)c2)n1)c1cc(F)cc(F)c1 [Compound 200, [2-(3,5-Difluoro-phenyl)-2,2 dideuteroethyl]-{4-[3-(2(S)-methyl-piperazin-1-ylmethyl)-phenyl]-pyrimidin-2-yl}-amine] |
| < 100 | CS(=O)(=O)N(CCCN)Cc1cccc(-c2ccnc(NCCc3ccc(O)cc3)n2)c1 [Compound 2, N-(3-Amino-propyl)-N-(3-{2-[2-(4-hydroxy-phenyl)-ethylamino]-pyrimidin-4-yl}-benzyl)-methanesulfonamide] |
| < 100 | CCN(CCCN)Cc1cccc(-c2ccnc(NCCc3ccc(O)cc3)n2)c1 [Compound 1, (4-{2-[4-(3-{[(3-Amino-propyl)-ethyl-amino]-methyl}-phenyl)-pyrimidin-2-ylamino]-ethyl}-phenol)] |
| < 100 | CC(C)NCc1cccc(-c2ccnc(NCCc3ccc(O)c(Cl)c3)n2)c1 [Compound 132, 2-Chloro-4-(2-{4-[3-(isopropylamino-methyl)-phenyl]-pyrimidin-2-ylamino}-ethyl)-phenol] |
| < 100 | Cc1c(CN2CCNC[C@@H]2C)cccc1-c1ccnc(NCCc2ccc(O)cc2)n1 [Compound 284, 4-(2-(4-(2-methyl-3-(((S)-2-methylpiperazin-1-yl)methyl)phenyl)pyrimidin-2-ylamino)ethyl)phenol] |
| < 100 | Oc1ccc(CCNc2nccc(-c3cccc(NC4CCCNC4)c3)n2)cc1 (stereo not drawn) [Compound 53, 4-(2-{4-[3-(Piperidin-3-ylamino)-phenyl]-pyrimidin-2-ylamino}-ethyl)-phenol] |
| < 100 | COc1ccc(CCNc2nccc(-c3cccc(CN(CCCN)S(C)(=O)=O)c3)n2)cc1O [Compound 8, N-(3-Amino-propyl)-N-(3-{2-[2-(3-hydroxy-4-methoxy-phenyl)-ethylamino]-pyrimidin-4-yl}-benzyl)-methanesulfonamide] |
| < 100 | CS(=O)(=O)N(Cc1cccc(-c2nc(NCCc3ccc(O)c(Cl)c3)ncc2F)c1)C1CCNCC1 [Compound 142, N-(3-{2-[2-(3-Chloro-4-hydroxy-phenyl)-ethylamino]-5-fluoro-pyrimidin-4-yl}-benzyl)-N-piperidin-4-yl-methanesulfonamide] |
| < 100 | C[C@H]1CNCCN1Cc1cccc(-c2ccnc(NCCc3cccc(F)c3)n2)c1 [Compound 130, [2-(3-Fluoro-phenyl)-ethyl]-{4-[3-(2-(S)-methyl-piperazin-1-ylmethyl)-phenyl]-pyrimidin-2-yl}-amine] |
| < 100 | Oc1ccc(CCNc2nccc(-c3cccc(NC4CCCNC4)c3)n2)cc1Cl (stereo not drawn) [Compound 54, 2-Chloro-4-(2-{4-[3-(piperidin-3-ylamino)-phenyl]-pyrimidin-2-ylamino}-ethyl)-phenol] |
| < 100 | CC(C)(C)NCc1cccc(-c2ccnc(NCCc3ccc(O)c(Cl)c3)n2)c1 [Compound 218, 4-(2-{4-[3-(tert-Butylamino-methyl)-phenyl]-pyrimidin-2ylamino}-ethyl)-2-chloro-phenol] |
| < 100 | Oc1ccc(CCNc2nccc(-c3cccc(CNCCc4ccccn4)c3)n2)cc1Cl [Compound 292, 2-chloro-4-(2-(4-(3-((2-(pyridinyl-2-yl)ethylamino)methyl)phenyl)pyrimidin-2-ylamino)ethyl)phenol] |
| < 100 | Oc1cccc(CCNc2nccc(-c3cccc(NC4CCNCC4)c3)n2)c1 [Compound 49, 3-(2-{4-[3-(Piperidin-4-ylamino)-phenyl]-pyrimidin-2-ylamino}-ethyl)-phenol] |
| < 100 | Cc1ncccc1C(=O)NCCCN(Cc1cccc(-c2ccnc(NCCc3ccc(O)cc3)n2)c1)S(C)(=O)=O [Compound 62] |

| IC50 [nM] | Compound |
| --- | --- |
| < 100 | CCN(Cc1cccnc1)c1cccc(-c2ccnc(NCCc3ccc(O)cc3)n2)c1 [Compound 80, 4-(2-{4-[3-(Ethyl-pyridin-3-ylmethyl-amino)-phenyl]-pyrimidin-2-ylamino}-ethyl)-phenol] |
| < 100 | CC(O)c1cccc(-c2ccnc(NCCc3ccc(O)cc3)n2)c1 (stereo not drawn) [Compound 121, 4-(2-{4-[3-(1-Hydroxy-ethyl)-phenyl]-pyrimidin-2-ylamino}-ethyl)-phenol] |
| < 100 | NCCCNC(=O)c1cccc(-c2ccnc(NCCc3ccc(O)cc3)n2)c1 [Compound 68, N-(3-Amino-propyl)-3-{2-[2-(4-hydroxy-phenyl)-ethylamino]-pyrimidin-4-yl}-benzamide] |
| < 100 | CS(=O)(=O)N(CCCN)Cc1cccc(-c2ccnc(NCCc3ccc(O)c(O)c3)n2)c1 [Compound 6, N-(3-Amino-propyl)-N-(3-{2-[2-(3,4-dihydroxy-phenyl)-ethylamino]-pyrimidin-4-yl}-benzyl)-methanesulfonamide] |
| < 100 | CCN(CC)CCCN(CC)Cc1cccc(-c2ccnc(NCCc3ccc(O)cc3)n2)c1 [Compound 126] |
| < 100 | CCNCc1cccc(-c2ccnc(NCCc3ccc(O)cc3)n2)c1 [Compound 131, 4-{2-[4-(3-Ethylaminomethyl-phenyl)-pyrimidin-2-ylamino]-ethyl}-phenol] |
| < 100 | Oc1c(Cl)cc(CCNc2nccc(-c3cccc(NC4CCNCC4)c3)n2)cc1Cl [Compound 48, 2,6-Dichloro-4-(2-{4-[3-(piperidin-4-ylamino)-phenyl]-pyrimidin-2-ylamino}-ethyl)-phenol] |
| < 100 | Oc1ccc(CCNc2nccc(-c3cccc(NC4CCNCC4)c3)n2)cc1 [Compound 38, 4-(2-{4-[3-(Piperidin-4-ylamino)-phenyl]-pyrimidin-2-ylamino}-ethyl)-phenol] |
| < 100 | C[C@H]1CNCCN1Cc1cc(-c2ccnc(NCCc3ccc(O)cc3)n2)ccc1F [Compound 286, 4-(2-(4-(4-fluoro-3-(((S)-2-methylpiperazin-1-yl)methyl)phenyl)pyrimidin-2-ylamino)ethyl)phenol] |
| < 100 | CCN(CCCN)Cc1cccc(-c2nc(NCCc3ccc(O)c(F)c3)ncc2F)c1 [Compound 143, 4-{2-[4-(3-{[(3-Amino-propyl)-ethyl-amino]-methyl}-phenyl)-5-fluoro-pyrimidin-2-ylamino]-ethyl}-2-fluoro-phenol] |
| < 100 | NC(=O)C1CNCCN1Cc1cccc(-c2ccnc(NCCc3ccc(O)cc3)n2)c1 (stereo not drawn) [Compound 254, 1-(3-{2-[2-(4-Hydroxy-phenyl)-ethylamino]-pyrimidin-4-yl}-benzyl)-piperazine-2-carboxylic acid amide] |
| < 100 | CCN(CC)CCCNCc1cccc(-c2ccnc(NCCc3ccc(O)cc3)n2)c1 [Compound 125, 4-[2-(4-{3-[(3-Diethylamino-propylamino)-methyl]-phenyl}-pyrimidin-2-ylamino)-ethyl]-phenol] |
| < 100 | CC(c1cccc(-c2ccnc(NCCc3ccc(O)cc3)n2)c1)N(CCCN)S(C)(=O)=O (stereo not drawn) [Compound 104] |
| < 100 | CS(=O)(=O)N(CCCNC(=O)c1ccccn1)Cc1cccc(-c2ccnc(NCCc3ccc(O)cc3)n2)c1 [Compound 60, Pyridine-2-carboxylic acid {3-[(3-{2-[2-(4-hydroxy-phenyl)-ethylamino]-pyrimidin-4-yl}-benzyl)-methanesulfonyl-amino]-propyl}-amide] |
| < 100 | CS(=O)(=O)N(CCCN)Cc1cccc(-c2ccnc(NCCc3cc(Cl)c(O)c(Cl)c3)n2)c1 [Compound 29, N-(3-Amino-propyl)-N-(3-{2-[2-(3,5-dichloro-4-hydroxy-phenyl)-ethylamino]-pyrimidin-4-yl}-benzyl)-methanesulfonamide] |
| < 100 | O=C(NCC1CCNC1)c1cccc(-c2ccnc(NCCc3ccc(O)cc3)n2)c1 (stereo not drawn) [Compound 67, 3-{2-[2-(4-Hydroxy-phenyl)-ethylamino]-pyrimidin-4-yl}-N-pyrrolidin-3-ylmethyl-benzamide] |
| < 100 | CC(=O)N(Cc1cccc(-c2ccnc(NCCc3ccc(O)cc3)n2)c1)CC1CCNC1 (stereo not drawn) [Compound 120, N-(3-{2-[2-(4-Hydroxy-phenyl)-ethylamino]-pyrimidin-4-yl}-benzyl)-N-pyrrolidin-3-ylmethyl-acetamide] |
| < 100 | CS(=O)(=O)N(CCCN)Cc1cccc(-c2ccnc(NCCc3cccc(O)c3)n2)c1 [Compound 26, N-(3-Amino-propyl)-N-(3-{2-[2-(3-hydroxy-phenyl)-ethylamino]-pyrimidin-4-yl}-benzyl)-methanesulfonamide] |
